We go through seven compounds from patent US20140349297A1, “FLUORESCENT DYES BASED ON ACRIDINE AND ACRIDINIUM DERIVATIVES” (Almac Sciences (Scotland) Limited, priority 2011, published 2014).

Molecules are shown by their SMILES. “And” between values parts separate entries of the source, which are not always exact repeats. Equal entries are not always repeated. Structures can show the parent of a compound that is named as a salt.

One data set concerns the target T1, recombinant Lck kinase (Homo sapiens, UniProt P06239).
T1 construct: purchased EnzoLifeSciences
The data set is classed as biochemical. Conditions: Lck 3.6 mU/well, 1 μM LLD-EPEGIYGVLF substrate; read-out: ATP Km. How it is done:
Enzyme: Lck (p56Ick) (EnzoLifeSciences, 18 U/m1), 3.6 mU/well
Enzyme (3.6 mU in 5 μl buffer A) was then added to each well. […] The average lifetime values were converted to pmol phosphopeptide from a standard curve and plots of initial rates of reaction dependent on ATP concentration were used to determine the ATP Km value by non-linear regression fitting using GraphPad Prism (see FIG. 10).

Data set [1] in a line: Fluorescence lifetimes of acridine derivatives by TCSPC (Table 1). Type of data set: physicochemical. Conditions: excitation 405 nm. Here is the method: Fluorescence lifetimes were determined by time-correlated single photon counting (TCSPC) acquisition using an Edinburgh Instruments Nanotaurus fluorescence lifetime platereader, using excitation laser 405 nm and either a 438 nm band pass, 450 nm band pass or 473 nm long pass emission filter for detection.

The nature of data set [2]: Fluorescence analysis of 9,10-dimethylacridin-10-ium methyl sulfate (lifetime decay). Type of data set: physicochemical. How it is done:
Measurements were performed in 10 mM PBS pH 7.4, excitation wavelength 350 nm and emission wavelength 490 nm for steady state, and excitation wavelength 405 nm and emission wavelength 473 nm long pass filter for fluorescence lifetime;
Steady state measurements were performed on an Edinburgh Instruments FLS920 steady state fluorimeter, with excitation wavelength of 350 nm and emission wavelength of 490 nm. Fluorescence lifetimes were determined by time-correlated single photon counting (TCSPC) acquisition using an Edinburgh Instruments Nanotaurus fluorescence lifetime platereader, using excitation laser 405 nm and a 473 nm long pass emission filter for detection.
The fluorescence excitation and emission spectra were measured at 1 μM 9,10-dimethylacridin-10-ium methyl sulfate concentration in phosphate buffered saline (PBS) solution pH 7.4. The fluorescence excitation and emission spectra, and fluorescence lifetime decay curve are shown in FIG. 1(a) and FIG. 1(b) respectively. 9,10-Dimethylacridin-10-ium methyl sulfate has an advantageously long fluorescence lifetime of circa 25-30 ns. In addition, the magnitude of the fluorescence lifetime was maintained across the three buffer systems tested (see Table 1, entry 6).

The conditions of data set [3]: reported, Tanaka et al. 2001; cited from earlier work.
Data set [4] is described as follows: Fluorescence emission profile as a function of pH. Type of data set: physicochemical. Particulars: excitation 405 nm. How it is done: The fluorescence emission profile was measured as a function of pH upon excitation at 405 nm (FIG. 3).
A short description of data set [5]: pH stability of fluorescence lifetime. Type of data set: physicochemical. Particulars: 1 μM in 20 mM sodium phosphate buffer. Here is the method: 1 μM solutions of 9,10-dimethylacridin-10-ium methyl sulfate in 20 mM sodium phosphate buffer were prepared using 0.2 M monobasic sodium phosphate and 0.2 M dibasic sodium phosphate buffer mixtures, 0.1 M HCl solution was used to adust the pH to <6 and 0.1 M NaOH solution was used to adjust the pH to >8;
An important criteria of fluorescence dyes suitable for use in biochemical and cell-based assays is the advantageousness of the fluorescence lifetime being independent of pH in the physiological range 5 to 9.

T1 sequence (P06239 whole entry, species assumed): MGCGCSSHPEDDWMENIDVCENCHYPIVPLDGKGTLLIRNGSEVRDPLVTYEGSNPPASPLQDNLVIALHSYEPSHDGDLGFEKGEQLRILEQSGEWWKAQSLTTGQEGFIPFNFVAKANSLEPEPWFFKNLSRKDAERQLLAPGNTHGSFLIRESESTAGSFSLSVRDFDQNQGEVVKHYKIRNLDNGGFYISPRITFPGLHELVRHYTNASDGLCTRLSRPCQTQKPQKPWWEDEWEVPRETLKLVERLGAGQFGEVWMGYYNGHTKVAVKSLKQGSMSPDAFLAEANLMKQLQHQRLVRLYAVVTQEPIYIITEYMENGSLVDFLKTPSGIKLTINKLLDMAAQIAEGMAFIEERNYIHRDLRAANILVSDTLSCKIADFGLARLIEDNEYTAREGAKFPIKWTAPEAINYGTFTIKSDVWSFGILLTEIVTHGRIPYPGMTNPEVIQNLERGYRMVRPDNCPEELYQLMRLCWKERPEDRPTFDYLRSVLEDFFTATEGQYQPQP

As for `Nc1ncnc2c1ncn2[C@@H]1O[C@H](COP(=O)(O)OP(=O)(O)OP(=O)(O)O)[C@@H](O)[C@H]1O` [ATP], on recombinant Lck kinase, the Michaelis-Menten constant (Km) (commonly the concentration of substrate that gives half-maximal velocity) stood at 36.4 µM.
Regarding `Nc1c2ccccc2nc2ccccc12` [Entry 1], the “Fluorescence Lifetime” value in data set [1] (1 μM in 50 mM AcOH solution) amounted to 15.6 ns; in data set [1] (1 μM in PBS) it was 15.6 ns; in data set [1] (1 μM in water) it was 15.7 ns.
Take `C[n+]1c2ccccc2c(N)c2ccccc21.[Cl-]` [Entry 2]: the figures for the “Fluorescence Lifetime” value in data set [1] (1 μM in 50 mM AcOH solution), in data set [1] (1 μM in PBS) and in data set [1] (1 μM in water) were 16.4 ns, 16.3 ns and 16.4 ns, respectively.
On to `c1ccc2nc3ccccc3cc2c1` [Entry 3], for which the “Fluorescence Lifetime” value was 29.4 ns in data set [1] (1 μM in 50 mM AcOH solution), 18.8 ns in data set [1] (1 μM in PBS) and 10.5 ns in data set [1] (1 μM in water).
`Cc1c2ccccc2nc2ccccc12` [Entry 4]: the “Fluorescence Lifetime” value in data set [1] (1 μM in 50 mM AcOH solution) turned out to be 29.1 ns; in data set [1] (1 μM in PBS) it was 11.7 ns; in data set [1] (1 μM in water), 29.1 ns.
For the compound `C[n+]1c2ccccc2cc2ccccc21` [Entry 5], the “Fluorescence Lifetime” value in data set [1] (1 μM in 50 mM AcOH solution) is 32.1 ns; in data set [1] (1 μM in PBS) it was 31.9 ns; in data set [1] (1 μM in water), 14.1 ns.
`Cc1c2ccccc2[n+](C)c2ccccc12` [Entry 6, 9,10-dimethylacridin-10-ium methyl sulfate]: the “fluorescence lifetime (decay curve, FIG. 1b)” value in data set [2] (10 mM PBS pH 7.4, excitation 405 nm, 473 nm long pass emission filter) was 26.2 ns. The Fluorescence Lifetime is 25-30 ns in data set [2] (circa, maintained across the three buffer systems tested); 29.8 ns in data set [1] (1 μM in 50 mM AcOH solution); 26.2 ns in data set [1] (1 μM in PBS); 30.0 ns in data set [1] (1 μM in water). Moreover, in data set [3], the “pKa of methyl protons at the 9-position” value is “akin to acetic acid”. Also, the emission maximum in data set [4] (solutions >pH 10) is 425 nm and 450 nm; in data set [4] (solutions at pH 3 to 10), 460 nm and 490 nm. In data set [5], the “fluorescence lifetime as a function of pH” value is listed as “stable across the pH range 3 to 10”.
